According to patent US20220002268A1, “NOVEL HETEROARYL-TRIAZOLE AND HETEROARYL-TETRAZOLE COMPOUNDS AS PESTICIDES” (Bayer Aktiengesellschaft, priority 2019, published 2022):

How the values were obtained:
Phaedon cochleariae = Phaedon cochleariae spray test; type: in vivo; settings: 168 h, after 7 days
Method: Phaedon cochleariae—Spray Test Solvent: 78.0 parts by weight of acetone • • 1.5 parts by weight of dimethylformamide Emulsifier: alkylarylpolyglycol ether
(§1) To produce a suitable preparation of active compound, 1 part by weight of active compound is mixed with the stated amount of solvents and is diluted with water, containing an emulsifier concentration of 1000 ppm, to the desired concentration. Further test concentrations are prepared by dilution with emulsifier containing water.
Chinese cabbage (Brassica pekinensis) leaf disks are sprayed with a preparation of the active ingredient of the desired concentration. Once dry, the leaf disks are infested with mustard beetle larvae (Phaedon cochleariae).
After 7 days mortality in % is determined. 100% means all beetle larvae have been killed and 0% means none of the beetle larvae have been killed.

Ctenocephalides felis [1] = assay: Ctenocephalides felis oral test; type: in vivo; settings: 48 h, 100 ppm in cattle blood, after 2 days
Method: Ctenocephalides felis—Oral Test Solvent: dimethyl sulfoxide
To produce a suitable preparation of active compound, 10 mg of active compound are dissolved in 0.5 ml solvent, and the concentrate is diluted with cattle blood to the desired concentration.
Approximately 20 adult unfed cat fleas (Ctenocephalides felis) are placed in flea chambers. The blood chamber, sealed with parafilm on the bottom, are filled with cattle blood supplied with compound solution and placed on the gauze covered top of the flea chamber, so that the fleas are able to suck the blood. The blood chamber is heated to 37° C. whereas the flea chamber is kept at room temperature.
After 2 days mortality in % is determined. 100% means all the fleas have been killed; 0% means none of the fleas have been killed.

Diabrotica balteata = Diabrotica balteata spray test; type: in vivo; settings: 168 h, 160 gg/well, after 7 days, read-out: efficacy (seedlings grown)
Method: Diabrotica balteata—Spray Test Solvent: 78.0 parts by weight of acetone • • 1.5 parts by weight of dimethylformamide Emulsifier: alkylarylpolyglycol ether
as §1, with “solvent,” for “solvents”, “and the concentrate” for “and”
Soaked wheat seeds (Triticum aestivum) are placed in a multiple well plate filled with agar and some water and are incubated for 1 day to germinate (5 seeds per well). The germinated wheat seeds are sprayed with a test solution containing the desired concentration of the active ingredient. Afterwards each unit is infected with 10-20 larvae of the banded cucumber beetle (Diabrotica balteata).
After 7 days efficacy in % is determined. 100% means all the seedlings have grown up like in the untreated, uninfected control; 0% means none of the seedlings have grown.

Myzus persicae = Myzus persicae oral test; type: in vivo; settings: 120 h, after 5 days
Method: Myzus persicae—Oral Test Solvent: 100 parts by weight acetone
To produce a suitable preparation of active compound, 1 part by weight of active compound is mixed with the stated amount of solvent, and the concentrate is diluted with water to the desired concentration.
50 μl compound solution is filled in microtiter plates and 150 μl IPL41 insect medium (33%+15% sugar) is added to obtain a total volume of 200 μl per well. Afterwards the plates are sealed with parafilm through which a mixed population of the green peach aphid (Myzus persicae) can suck on the compound preparation.
After 5 days mortality in % is determined. 100% means all aphids have been killed and 0% means none of the aphids have been killed.

Boophilus microplus = Boophilus microplus injection test; type: in vivo; settings: Rhipicephalus microplus, 168 h; 20 gg/animal, injection into abdomen, after 7 days; read-out: efficacy (infertile eggs)
Method: Boophilus microplus—Injection Test Solvent: dimethyl sulfoxide To produce a suitable preparation of active compound, 10 mg of active compound are dissolved in 0.5 ml solvent, and the concentrate is diluted with solvent to the desired concentration. Five adult engorged female ticks (Boophilus microplus) are injected with 1 μl compound solution into the abdomen. The ticks are transferred into replica plates and incubated in a climate chamber. After 7 days egg deposition of fertile eggs is monitored. Eggs where fertility is not visible are stored in a climate chamber till hatching after about 42 days. An efficacy of 100% means all eggs are infertile; 0% means all eggs are fertile.

[2] = test system: Aedes aegypti strain MONHEIM; assay: Aedes aegypti test (AEDSAE surface treatment & contact assay); type: in vivo; settings: surface concentration 20 mg/m^2, 30 minutes exposure, 24 hours after contact, read-out: efficacy (mortality)
Method: Aedes aegyti Test (AEDSAE Surface Treatment & Contact Assay) Solvent: Aceton+2000 ppm rapeseed oil methyl ester (RME)
(§2) In order to produce a sufficient, active ingredient containing solution it is necessary to solve the test compound in the solvent-mix (acetone at 2 mg/ml/RME 2000 ppm). This solution is pipetted onto a glazed tile and after evaporation of the acetone, adult mosquitoes of the species Aedes aegypti strain MONHEIM are placed onto the dried surface. The exposure time is 30 minutes.
(§3) Mortality in percent (%) is determined 24 hours after contact to the treated surface. 100% mortality means that all tested insects are dead, whereas 0% means that no insect died.

Rhipicephalus sanguineus = Rhipicephalus sanguineus in-vitro contact test, adult brown dog ticks; type: in vivo; settings: 5 gg/cm^2, after 48 hours
Method: (§4) 9 mg compound is solved in 1 ml acetone and diluted with acetone to the desired concentration. 250 μl of the test solution is filled in 25 ml glass test tubes and homogeneously distributed on the inner walls by rotation and tilting on a shaking device (2 h at 30 rpm). With a compound concentration of 900 ppm, an inner surface of 44.7 cm^2 and a homogeneous distribution, a dose of 5 μg/cm^2 is achieved.
(§5) After the solvent has evaporated, each test tube is filled with 5-10 adult brown dog ticks (Rhipicephalus sanguineus), closed with a perforated lid and incubated in a lying position at room temperature and relative humidity. After 48 hours efficacy is determined. The ticks are patted on the ground of the tubes and are incubated on a heating plate at 45-50° C. for at most 5 minutes. Immotile or uncoordinated moving ticks, which are not able to escape the heat by climbing upwards, are marked as dead or moribund.
An efficacy of 100% means all ticks are dead or moribund; 0% means no ticks are dead or moribund.

[3] = test system: Anopheles funestus strain FUMOZ-R; assay: whole plant or invertebrate; type: in vivo; settings: read-out: efficacy (mortality)
Method: Anopheles funestus Test (ANPHFU Surface Treatment & Contact Assay) Solvent: Aceton+2000 ppm rapeseed oil methyl ester (RME)
as §2, with “Anopheles funestus” for “Aedes aegypti”, “FUMOZ-R (Hunt et al., Med. Vet. Entomol. 2005 September; 19(3): 271-275)” for “MONHEIM”
as §3

Spodoptera frugiperda = Spodoptera frugiperda spray test; type: in vivo; settings: 168 h, after 7 days
Method: Suodontera frugiuerda—Spray Test Solvent: 78.0 parts by weight acetone • 1.5 parts by weight dimethylformamide Emulsifier: alkylarylpolyglycol ether
as §1
Maize (Zea mays) leaf sections are sprayed with a preparation of the active ingredient of the desired concentration. Once dry, the leaf sections are infested with fall armyworm larvae (Spodoptera frugiperda).
After 7 days mortality in % is determined. 100% means all caterpillars have been killed and 0% means none of the caterpillars have been killed.

Ctenocephalides felis [4] = assay: Ctenocephalides felis in-vitro contact test, adult cat flea; type: in vivo; settings: 5 μg/cm^2, after 48 hours
Method: as §4
as §5, with “cat fleas (Ctenocephalides felis),” for “brown dog ticks (Rhipicephalus sanguineus),”, “fleas” for “ticks”, “fleas,” for “ticks,”
An efficacy of 100% means all fleas are dead or moribund; 0% means no fleas are dead or moribund.

[5] = test system: Culex quinquefasciatus strain P00; assay: whole plant or invertebrate; type: in vivo; settings: read-out: efficacy (mortality)
Method: Culex quinquefasciatus Test (CULXFA Surface Treatment & Contact Assay) Solvent: Aceton+2000 ppm rapeseed oil methyl ester (RME)
as §2, with “Culex quinquefasciatus” for “Aedes aegypti”, “P00” for “MONHEIM”
as §3

Nilaparvata lugens = Nilaparvata lugens spray test; type: in vivo; settings: 96 h, after 4 days
Method: Nilaparvata lugens—Spray Test Solvent: 78.0 parts by weight of acetone • • 1.5 parts by weight of dimethylformamide Emulsifier: alkylarylpolyglycol ether
as §1
Rice plants (Oryza sativa) are sprayed with a preparation of the active ingredient of the desired concentration and the plants are infested with the brown planthopper (Nilaparvata lugens).
After 4 days mortality in % is determined. 100% means all planthoppers have been killed and 0% means none of the planthoppers have been killed.

[6] = log P by HPLC on reversed phase, neutral range; type: physicochemical; settings: reversed phase HPLC column, LC-UV, 0.001 molar ammonium acetate solution in water and acetonitrile
Method: Measurement of log P values was performed according to EEC directive 79/831 Annex V.A8 by HPLC (High Performance Liquid Chromatography) on reversed phase columns with the following methods. Instrument(s): Agilent 1100 LC system, Agilent MSD system, HTS PAL; Waters IClass Acquity UPLC, SQD2 (MS), PDA (UV). […] Calibration was done with straight-chain alkan-2-ones (with 3 to 16 carbon atoms) with known log P values (measurement of log P values using retention times with linear interpolation between successive alkanones). Lambda-max-values were determined using UV-spectra from 200 nm to 400 nm and the peak values of the chromatographic signals.

Work on `O=C(c1cc(Cl)nc(Cl)c1)N(Cc1ncnn1-c1ncccn1)CC1CC1` [Example I-002] yielded a mortality at 500 g/ha (Phaedon cochleariae) of 100%, a mortality at 100 ppm (Ctenocephalides felis [1]) of 80% and a pest or weed control at 160 µg/well (Diabrotica balteata) of 100%. It also gave a mortality at 20 ppm (Myzus persicae) of 100%.

Compound `O=C(c1cccc(C(F)(F)F)c1)N(Cc1ncnn1-c1ncccn1)CC1CC1` [Example I-003] has a pest or weed control at 0.02 mg (Boophilus microplus) of 100%, a mortality at 500 g/ha (Phaedon cochleariae) of 100% and a pest or weed control at 160 µg/well (Diabrotica balteata) of 100%. It also gave a mortality at 20 ppm (Myzus persicae) of 100%.

In the case of `O=C(NCc1ncnn1-c1ncccn1)c1cc(Cl)cc(C(F)(F)F)c1` [Example I-005], the mortality at 20 mg/m2 [2] was 85 to 100%, the pest or weed control at 0.02 mg (Boophilus microplus) was 100% and the “efficacy (ticks dead or moribund)” value (Rhipicephalus sanguineus) was 100%. For the same compound, the mortality at 4 mg/m2 [3] was 85 to 100%, the mortality at 20 mg/m2 [3] was 85 to 100% and the mortality at 500 g/ha (Spodoptera frugiperda) was 100%. For the same compound, the “efficacy (fleas dead or moribund)” value (Ctenocephalides felis [4]) was 100%, the mortality at 500 g/ha (Phaedon cochleariae) was 100% and the mortality at 100 ppm (Ctenocephalides felis [1]) was 100%. For the same compound, the pest or weed control at 160 µg/well (Diabrotica balteata) was 100%, the mortality at 4 mg/m2 [5] was 85 to 100% and the mortality at 20 mg/m2 [5] was 85 to 100%. For the same compound, the mortality at 20 ppm (Myzus persicae) was 100%.

In the case of `O=C(NCCc1ncnn1-c1ncccn1)c1cc(Cl)cc(C(F)(F)F)c1` [Example I-006], the mortality at 20 mg/m2 [2] was 85 to 100%, the pest or weed control at 0.02 mg (Boophilus microplus) was 100% and the mortality at 500 g/ha (Phaedon cochleariae) was 100%. For the same compound, the mortality at 100 ppm (Ctenocephalides felis [1]) was 100%, the pest or weed control at 160 µg/well (Diabrotica balteata) was 100% and the mortality at 20 ppm (Myzus persicae) was 100%.

In the case of `O=C(NC(CC1CC1)c1ncnn1-c1ncccn1)c1cc(Cl)cc(C(F)(F)F)c1` (stereo not shown) [Example I-007], the mortality at 20 ppm (Myzus persicae) was 100%.

With `O=C(NC(c1ncnn1-c1ncccn1)C1CC1)c1cc(Cl)cc(C(F)(F)F)c1` (stereo not shown) [Example I-008] the pest or weed control at 0.02 mg (Boophilus microplus) was 95%, the mortality at 500 g/ha (Phaedon cochleariae) was 100% and the mortality at 100 ppm (Ctenocephalides felis [1]) was 100%.

`O=C(c1cc(Cl)cc(Cl)c1)N(Cc1ncnn1-c1ncccn1)CC1CC1` [Example I-010] showed a mortality at 500 g/ha (Phaedon cochleariae) of 100%, a pest or weed control at 160 µg/well (Diabrotica balteata) of 100% and a mortality at 20 ppm (Myzus persicae) of 100%.

In the case of `COCC(NC(=O)c1cc(Cl)cc(C(F)(F)F)c1)c1ncnn1-c1ncccn1` (stereo not shown) [Example I-012, 3-Chloro-N-{2-methoxy-1-[1-(pyrimidin-2-yl)-1H-1,2,4-triazol-5-yl]ethyl}-5-(trifluoromethyl)-benzamide], the pest or weed control at 0.02 mg (Boophilus microplus) was 100%, the “efficacy (ticks dead or moribund)” value (Rhipicephalus sanguineus) was 80% and the mortality at 500 g/ha (Nilaparvata lugens) was 100%. For the same compound, the “efficacy (fleas dead or moribund)” value (Ctenocephalides felis [4]) was 100%, the mortality at 500 g/ha (Phaedon cochleariae) was 100% and the mortality at 100 ppm (Ctenocephalides felis [1]) was 100%. For the same compound, the pest or weed control at 160 µg/well (Diabrotica balteata) was 100% and the mortality at 20 ppm (Myzus persicae) was 100%.

In the case of `COCC(NC(=O)c1cc(Cl)cc(C(F)(F)F)c1)c1ncnn1-c1ccc(C#N)cn1` (stereo not shown) [Example I-013], the pest or weed control at 0.02 mg (Boophilus microplus) was 100%, the mortality at 500 g/ha (Spodoptera frugiperda) was 100% and the mortality at 100 ppm (Ctenocephalides felis [1]) was 100%.

In the case of `O=C(NC1(c2ncnn2-c2ncccn2)CC1)c1cc(C(F)(F)F)cc(C(F)(F)F)c1` [Example I-014], the pest or weed control at 0.02 mg (Boophilus microplus) was 100%.

With `COC[C@H](NC(=O)c1cc(Cl)cc(Cl)c1)c1ncnn1-c1ccc(C#N)cn1` [Example I-017] the mortality at 500 g/ha (Spodoptera frugiperda) was 100% and the “efficacy (fleas dead or moribund)” value (Ctenocephalides felis [4]) was 90%.

In the case of `COC[C@H](NC(=O)c1cc(Cl)cc(OC(F)(F)F)c1)c1ncnn1-c1ccc(C#N)cn1` [Example I-018], the mortality at 500 g/ha (Spodoptera frugiperda) was 100%.

In the case of `NCCc1ncnn1-c1ncccn1` [a-002], the chromatographic logP [6] was 0.01.

Work on `N#Cc1ccc(-n2ncnc2CCN)nc1` [a-003] yielded a chromatographic logP [6] of 0.87.

`COCC(NC(=O)c1cc(Cl)cc(C(F)(F)F)c1)C(N)=O` (stereo not shown) [n-001, N-(1-amino-3-methoxy-1-oxopropan-2-yl)-3-chloro-5-(trifluoromethyl)benzamide] showed a chromatographic logP [6] of 1.94.
